Values quoted from earlier work as cited in patent US10638758B2, “Heterocycle-containing amino acid compound and use thereof” (AICHI STEEL CORPORATION, priority 2015, dated 2020).

System: rice
Settings: alkaline conditions; Non-Patent Document 2

O=C(O)[C@@H](NCC[C@H](O)C(=O)O)[C@@H](O)CN1CC[C@H]1C(=O)O [mugineic acid]
effect on the growth of graminaceous plants: dramatic effect
